Results published in publication PMC8008885 (Journal of Enzyme Inhibition and Medicinal Chemistry, 2021).

Test system: H3K9me3 occupancy in promoter regions
Assay: H3K9me3-ChIP sequencing of striatal tissue of YAC128 mice
Format: in vivo, mouse
Conditions: for Fold(YACEi/YAC) H3K9me3 ChIP occupancy: APQ-treated YAC vs YAC mice striatum
Protocol: ChIP for H3K9me3 binding to DNA was performed using a CHIP assay kit (Santa Cruz, Dallas, TX) as described previously[21]^,[28]. Striatal tissues from WT, vehicle treated YAC128, and APQ-treated YAC128 mice were crossed-linked with 1% formaldehyde for 20 min at room temperature. Lysates were sonicated for 30 s six times using a Bioruptor (Diagenode Inc., Denville, NJ). After centrifugation, the supernatant was diluted in CHIP dilution buffer and incubated overnight at 4 °C with anti-H3K9me3 antibody. Immune complexes were recovered by the addition of 60 µl of salmon sperm DNA/protein A agarose-50% slurry and incubation at 4 °C for 2 h with rotation. Beads were pelleted and washed with low and high salt buffer followed by LiCl buffer (x3). Immune complexes were eluted by incubation with 500 µl of fresh elution buffer (1% SDS, 0.1 M NaHCO3) and 20 µl of 5 M NaCl. DNA was cleaned by the addition of 500 mM EDTA, 1 M Tris, and proteinase K at 66 °C for 4 h. The DNA solution was extracted with a phenol/chloroform/isoamyl alcohol mixture to remove protein contaminants, followed by precipitation with 100% ethanol. After precipitation, the pellet was washed with 70% ethanol and dissolved in 20 µl DW.
The Model-based Analysis of ChIP-Seq algorithm (MACS; v. 1.4.2) was used to identify regions of H3K9me3 enrichment with the default parameters. The peaks that pass a Poisson p values threshold of 0.1 were used for further analyses[28]^,[42]. In order to obtain reliable regions of enrichment, the regions detected in more than two samples were selected and aligned to define the consensus regions using DiffBind R package (v. 2.4.8)[43]. The reads in the consensus regions were counted and DESeq2 was applied to identify DMRs[44]. The DMRs were defined as p values of ≤.05 and only DMRs in promoter region (≤3 K from transcription start site) were selected.
Among the read peaks, a total of H3K9me3-enriched 71735 sites were commonly detected using MACS in WT, vehicle-treated YAC128, and APQ-treated YAC128 mice (using DiffBind R package). The reads were re-counted in the 71,735 sites (using DESeq2) and the H3K9me3-enriched sites in promoter region (≤3 K), with p values ≤.01 were selected. Then the H3K9me3-enriched sites with 1.5-fold higher in vehicle-treated YAC128 compared to WT and 1.5-fold lower in vehicle-treated YAC128 compared to APQ-treated YAC128 were finally selected.

Structure (SMILES): C=CCOc1cccc2nc(N3CCCC3)ccc12 [APQ, 5-allyloxy-2-(pyrrolidin-1-yl)quinoline]
- Fold(YACEi/YAC) (H3K9me3 ChIP peak chrX_13041660_13042117, 5730405O15Rik, Promoter (<=1kb)): -3.61
- Fold(YACEi/YAC) (H3K9me3 ChIP peak chrX_20364227_20364518, Rp2, Promoter (<=1kb)): -2.41
- Fold(YACEi/YAC) (H3K9me3 ChIP peak chrX_20656130_20656390, Uba1, Promoter (1-2kb)): -3.37
- Fold(YACEi/YAC) (H3K9me3 ChIP peak chrX_20953229_20953500, Elk1, Promoter (2-3kb)): -2.86
- Fold(YACEi/YAC) (H3K9me3 ChIP peak chrX_21482622_21482887, Agtr2, Promoter (1-2kb)): -3.76
- Fold(YACEi/YAC) (H3K9me3 ChIP peak chrX_51205773_51206072, Mbnl3, Promoter (<=1kb)): -4.38
- Fold(YACEi/YAC) (H3K9me3 ChIP peak chrX_52575414_52575585, A630012P03Rik, Promoter (<=1kb)): -2.24
- Fold(YACEi/YAC) (H3K9me3 ChIP peak chrX_53059727_53060393, C430049B03Rik, Promoter (2-3kb)): -2.78
- Fold(YACEi/YAC) (H3K9me3 ChIP peak chrX_55223440_55223928, Slxl1, Promoter (2-3kb)): -3.59
- Fold(YACEi/YAC) (H3K9me3 ChIP peak chrX_56214992_56215323, Gm773, Promoter (2-3kb)): -3.3
- Fold(YACEi/YAC) (H3K9me3 ChIP peak chrX_56345445_56345878, Zfp449, Promoter (<=1kb)): -3.19
- Fold(YACEi/YAC) (H3K9me3 ChIP peak chrX_56823574_56823879, Map7d3, Promoter (1-2kb)): -4.1
- Fold(YACEi/YAC) (H3K9me3 ChIP peak chrX_57211052_57211422, Cd40lg, Promoter (<=1kb)): -3.71
- Fold(YACEi/YAC) (H3K9me3 ChIP peak chrX_59587905_59588513, Fgf13, Promoter (2-3kb)): -4.9
- Fold(YACEi/YAC) (H3K9me3 ChIP peak chrX_62280858_62281466, 4933402E13Rik, Promoter (2-3kb)): -2.07
- Fold(YACEi/YAC) (H3K9me3 ChIP peak chrX_66814240_66814775, Mir470, Promoter (<=1kb)): -2.86
- Fold(YACEi/YAC) (H3K9me3 ChIP peak chrX_68010275_68010563, Mir509, Promoter (<=1kb)): -3.86
- Fold(YACEi/YAC) (H3K9me3 ChIP peak chrX_72985743_72986276, Zfp185, Promoter (1-2kb)): -2.91
- Fold(YACEi/YAC) (H3K9me3 ChIP peak chrX_74085947_74086310, Mecp2, Promoter (<=1kb)): -3.17
- Fold(YACEi/YAC) (H3K9me3 ChIP peak chrX_74254068_74254967, Emd, Promoter (<=1kb)): -2.9
- Fold(YACEi/YAC) (H3K9me3 ChIP peak chrX_100570155_100570557, Awat1, Promoter (1-2kb)): -2.24
- Fold(YACEi/YAC) (H3K9me3 ChIP peak chrX_100595739_100596091, P2ry4, Promoter (<=1kb)): -2.74
- Fold(YACEi/YAC) (H3K9me3 ChIP peak chrX_103413658_103414114, Tsx, Promoter (<=1kb)): -2.74
- Fold(YACEi/YAC) (H3K9me3 ChIP peak chrX_112599521_112600132, Zfp711, Promoter (<=1kb)): -3.8
- Fold(YACEi/YAC) (H3K9me3 ChIP peak chrX_113186036_113186428, Chm, Promoter (<=1kb)): -3.29
- Fold(YACEi/YAC) (H3K9me3 ChIP peak chrX_120315318_120315582, H2afb3, Promoter (2-3kb)): -3.46
- Fold(YACEi/YAC) (H3K9me3 ChIP peak chrX_120316028_120316808, H2afb3, Promoter (2-3kb)): -3.74
- Fold(YACEi/YAC) (H3K9me3 ChIP peak chrX_123101642_123102142, Cldn34c1, Promoter (1-2kb)): -3.6
- Fold(YACEi/YAC) (H3K9me3 ChIP peak chrX_134057860_134058275, Cstf2, Promoter (<=1kb)): -2.34
- Fold(YACEi/YAC) (H3K9me3 ChIP peak chrX_134162152_134162880, Xkrx, Promoter (<=1kb)): -2.18
- Fold(YACEi/YAC) (H3K9me3 ChIP peak chrX_134757222_134757422, Mir7093, Promoter (<=1kb)): -2.8
- Fold(YACEi/YAC) (H3K9me3 ChIP peak chrX_142294260_142294634, Gm5643, Promoter (2-3kb)): -2.73
- Fold(YACEi/YAC) (H3K9me3 ChIP peak chrX_142390366_142390928, Acsl4, Promoter (<=1kb)): -2.3
- Fold(YACEi/YAC) (H3K9me3 ChIP peak chrX_150550381_150550648, Mir3620, Promoter (2-3kb)): -2.24
- Fold(YACEi/YAC) (H3K9me3 ChIP peak chrX_152231158_152231359, Kdm5c, Promoter (1-2kb)): -3.16
- Fold(YACEi/YAC) (H3K9me3 ChIP peak chrX_152560343_152560717, Cldn34a, Promoter (2-3kb)): -4.14
- Fold(YACEi/YAC) (H3K9me3 ChIP peak chrX_152562252_152562894, Cldn34a, Promoter (<=1kb)): -2.56
- Fold(YACEi/YAC) (H3K9me3 ChIP peak chrX_153139912_153140739, Rragb, Promoter (<=1kb)): -2.81
- Fold(YACEi/YAC) (H3K9me3 ChIP peak chrX_158043367_158043944, Cnksr2, Promoter (<=1kb)): -2.16
- Fold(YACEi/YAC) (H3K9me3 ChIP peak chrX_159623974_159624438, Sh3kbp1, Promoter (2-3kb)): -3.85
- Fold(YACEi/YAC) (H3K9me3 ChIP peak chrX_159987543_159987820, Map3k15, Promoter (<=1kb)): -3.61
- Fold(YACEi/YAC) (H3K9me3 ChIP peak chrX_161115587_161115938, Scml2, Promoter (1-2kb)): -2.64
- Fold(YACEi/YAC) (H3K9me3 ChIP peak chrX_162760032_162760397, Rbbp7, Promoter (<=1kb)): -3.13
- Fold(YACEi/YAC) (H3K9me3 ChIP peak chrX_166236123_166236395, Gpm6b, Promoter (2-3kb)): -4.18
- Fold(YACEi/YAC) (H3K9me3 ChIP peak chrX_166439947_166441101, Ofd1, Promoter (<=1kb)): -2.41
- Fold(YACEi/YAC) (H3K9me3 ChIP peak chrX_166482184_166482633, Rab9, Promoter (2-3kb)): -2.11
- Fold(YACEi/YAC) (H3K9me3 ChIP peak chrX_167266371_167266766, Tlr8, Promoter (2-3kb)): -3.38
- Fold(YACEi/YAC) (H3K9me3 ChIP peak chrX_169321353_169321792, Hccs, Promoter (<=1kb)): -2.43
- Fold(YACEi/YAC) H3K9me3 ChIP occupancy (Hsf3, Promoter (<=1kb), chrX_96456335_96456839): -2.88
- Fold(YACEi/YAC) H3K9me3 ChIP occupancy (Mageb18, Promoter (1-2kb), chrX_92601496_92601857): -2.64
- Fold(YACEi/YAC) H3K9me3 ChIP occupancy (Prkx, Promoter (2-3kb), chrX_77798133_77798638): -2.48
- Fold(YACEi/YAC) H3K9me3 ChIP occupancy (Rbm3, Promoter (1-2kb), chrX_8147480_8147724): -2.71
- Fold(YACEi/YAC) H3K9me3 ChIP occupancy (Ssxb3, Promoter (2-3kb), chrX_8592171_8592736): -2.75
- Fold(YACEi/YAC) H3K9me3 ChIP occupancy (Suv39h1, Promoter (1-2kb), chrX_8076427_8076637): -2.8
- Fold(YACEi/YAC) H3K9me3 ChIP occupancy (Wdr45, Promoter (1-2kb), chrX_7720185_7720585): -3.17
